Measured values reported in US8092816B2, “Insecticidal compositions for control of general household pests” (priority 2004, dated 2012).

Assays:
German cockroach = assay: Example 1: German cockroach mortality, spray of bifenthrin and imidacloprid combinations; format: in vivo
From the text: (§1) The following examples further illustrate the present invention, but, of course, should not be construed as in any way limiting its scope. The examples set forth certain biological data illustrating the efficacy of the compositions of the present invention in controlling general household pests. Each example embodies a separate test wherein the pests were randomly selected from a population at a random age. As a result, from example to example, the ages of the pests can be very different. This age difference potentially translates to different baselines for each example. Therefore, data should only be compared within the example and not from example to example due to the differences in age of the pests from example to example. Unless otherwise indicated, all parts, percentages, and the like are by weight. The spray chamber used in the examples was approximately 76 inches tall, 73 inches long and 31 inches deep with an adjustable shelf (approximately 22 inches deep) and a movable spray nozzle. The spray chambers were calibrated to deliver a volume of approximately 1 gallon of liquid per 1000 square feet of area at about 14 pounds per square inch of pressure. A DeVilbiss hand held sprayer (Atomizer model 152) manufactured by DeVilbiss located in Glendale Heights, Ill. was used in testing house flies and mosquitoes. The DeVilbiss was used to apply approximately 3-5 milliliters of product at about 10 pounds per square inch.
The compositions of the present invention were tested for German cockroach activity in the following manner:
(§2) Test compositions made up of TALSTARONE® MULTI-INSECTICIDE and a wettable powder of imidacloprid (MERIT) in distilled water were prepared that provided appropriate rates of application of combinations of bifenthrin and imidacloprid, as well as bifenthrin and imidacloprid alone.
The spray chamber was then calibrated to deliver the treatment solution at the desired volume and pressure over the desired area on the chamber shelf. Spray chamber shelf height was adjusted to approximately 18 inches from the spray tip. The shelf was then covered with aluminum foil and the center of the shelf from front-to-back and end-to-end was determined. A desired number of 4.0″ sieve circles were marked on the aluminum foil with a permanent marker. The inside of a desired number of PVC rings were coated with a petroleum jelly/mineral oil mixture (1:2 ratio). The PVC rings were place on the sieve circles. 10 male German cockroaches were placed inside each PVC ring. The sprayer was activated and the test compound was applied to each PVC ring interior. German cockroach mortality was measured.

Oriental cockroach = assay: Example 4: Oriental cockroach knockdown and mortality, bifenthrin and imidacloprid; format: in vivo
From the text: as §1
The compositions of the present invention were tested for Oriental cockroach activity in the following manner:
as §2
The spray chamber was then calibrated to deliver the treatment solution at the desired volume and pressure over the desired area on the chamber shelf. Spray chamber shelf height was adjusted to approximately 18 inches from the spray tip. The shelf was then covered with aluminum foil and the center of the shelf from front-to-back and end-to-end was determined. A desired number of 4.0″ sieve circles were marked on the aluminum foil with a permanent marker. The inside of a desired number of PVC rings were coated with a petroleum jelly/mineral oil mixture (1:2 ratio). The PVC rings were place on the sieve circles. 10 male Oriental cockroaches were placed inside each PVC ring. The sprayer was activated and the test compound was applied to each PVC ring interior. Oriental cockroach knockdown and mortality were measured.

Red Imported Fire Ant = assay: Example 6: red imported fire ant knockdown and mortality, bifenthrin and imidacloprid (higher rates); format: in vivo, Solenopsis invicta
From the text: as §1
The compositions of the present invention were tested for red imported fire ant activity in the following manner:
as §2
The spray chamber was then calibrated to deliver the treatment solution at the desired volume and pressure over the desired area on the chamber shelf. Spray chamber shelf height was adjusted to approximately 18 inches from the spray tip. The shelf was then covered with aluminum foil and the center of the shelf from front-to-back and end-to-end was determined. The red imported file ants to be treated were collected and placed in screened 16 oz paper cups. The paper cups were placed onto the aluminum foil on the spray chamber shelf. The sprayer was activated and the test compound was applied to each paper cup interior. Red imported fire ant knockdown and mortality were measured.

House Fly = assay: Example 7: house fly knockdown and mortality, bifenthrin and imidacloprid; format: in vivo
From the text: as §1
(§3) The compositions of the present invention were tested for house fly activity in the following manner:
as §2
(§4) A DeVilbiss hand held sprayer was used to deliver the treatment solution at the desired volume and pressure. The house flies to be treated were collected and placed in screened 16 oz paper cups. The hand held sprayer was activated and the test compound was applied to each paper cup interior. House fly knockdown and mortality were measured.

House Flies = assay: Example 17: house fly knockdown and mortality, bifenthrin and clothianidin; format: in vivo
From the text: as §1, §3
Test compositions made up of TALSTARONE® MULTI-INSECTICIDE and a 16% a.i. water dispersible granular of clothianidin in distilled water were prepared that provided appropriate rates of application of combinations of bifenthrin and clothianidin, as well as bifenthrin and clothianidin alone.
as §4

[1] = rate of appln. 10 PPM (0.001% by weight)
[2] = rate of appln. 50 PPM (0.005% by weight)

Cc1c(COC(=O)[C@@H]2[C@H](/C=C(\Cl)C(F)(F)F)C2(C)C)cccc1-c1ccccc1 (racemic) [A, 2-methylbiphenyl-3-ylmethyl (Z)-(1RS)-cis-3-(2-chloro-3,3,3-trifluoroprop-1-enyl)-2,2-dimethylcyclopropanecarboxylate]
Mortality Rate @ 60 minutes (German cockroach; 10 PPM, 0.001% by weight): 3%
Mortality Rate @ 120 minutes (German cockroach; 10 PPM, 0.001% by weight): 33%
Mortality Rate @ 1 day (German cockroach; 10 PPM, 0.001% by weight): 33%
Mortality Rate @ 2 days (German cockroach; 10 PPM, 0.001% by weight): 60%
Mortality Rate @ 60 minutes (German cockroach; 50 PPM, 0.005% by weight): 30%
Mortality Rate @ 120 minutes (German cockroach; 50 PPM, 0.005% by weight): 48%
Mortality Rate @ 1 day (German cockroach; 50 PPM, 0.005% by weight): 58%
Mortality Rate @ 2 days (German cockroach; 50 PPM, 0.005% by weight): 100%
Knockdown Rate @ 15 minute (Oriental cockroach; 10 PPM, 0.001% by weight): 0%
Knockdown Rate @ 30 minute (Oriental cockroach; 10 PPM, 0.001% by weight): 0%
Mortality Rate @ 60 minute (Oriental cockroach; 10 PPM, 0.001% by weight): 0%
Mortality Rate @ 120 minute (Oriental cockroach; 10 PPM, 0.001% by weight): 0%
Mortality Rate @ 4 hours (Oriental cockroach; 10 PPM, 0.001% by weight): 0%
Mortality Rate @ 1 day (Oriental cockroach; 10 PPM, 0.001% by weight): 15%
Mortality Rate @ 2 days (Oriental cockroach; 10 PPM, 0.001% by weight): 15%
Knockdown Rate @ 15 minute (Oriental cockroach; 50 PPM, 0.005% by weight): 0%
Knockdown Rate @ 30 minute (Oriental cockroach; 50 PPM, 0.005% by weight): 0%
Mortality Rate @ 60 minute (Oriental cockroach; 50 PPM, 0.005% by weight): 5%
Mortality Rate @ 120 minute (Oriental cockroach; 50 PPM, 0.005% by weight): 5%
Mortality Rate @ 4 hours (Oriental cockroach; 50 PPM, 0.005% by weight): 30%
Mortality Rate @ 1 day (Oriental cockroach; 50 PPM, 0.005% by weight): 70%
Mortality Rate @ 2 days (Oriental cockroach; 50 PPM, 0.005% by weight): 70%
Knockdown Rate @ 5 minute (Red Imported Fire Ant; 200 PPM, 0.02% by weight): 0%
Knockdown Rate @ 10 minute (Red Imported Fire Ant; 200 PPM, 0.02% by weight): 0%
Knockdown Rate @ 15 minute (Red Imported Fire Ant; 200 PPM, 0.02% by weight): 70%
Knockdown Rate @ 30 minutes (Red Imported Fire Ant; 200 PPM, 0.02% by weight): 88%
Mortality @ 120 minutes (Red Imported Fire Ant; 200 PPM, 0.02% by weight): 100%
Mortality Rate @ 60 minutes (Red Imported Fire Ant; 200 PPM, 0.02% by weight): 100%
Mortality Rate @ 4 hours (Red Imported Fire Ant; 200 PPM, 0.02% by weight): 100%
Knockdown Rate @ 5 minute (Red Imported Fire Ant; 600 PPM, 0.06% by weight): 0%
Knockdown Rate @ 10 minute (Red Imported Fire Ant; 600 PPM, 0.06% by weight): 40%
Knockdown Rate @ 15 minute (Red Imported Fire Ant; 600 PPM, 0.06% by weight): 88%
Knockdown Rate @ 30 minutes (Red Imported Fire Ant; 600 PPM, 0.06% by weight): 100%
Mortality @ 120 minutes (Red Imported Fire Ant; 600 PPM, 0.06% by weight): 100%
Mortality Rate @ 60 minutes (Red Imported Fire Ant; 600 PPM, 0.06% by weight): 100%
Mortality Rate @ 4 hours (Red Imported Fire Ant; 600 PPM, 0.06% by weight): 100%
Knockdown Rate @ 15 minute (House Fly; 10 PPM, 0.001% by weight): 0%
Knockdown Rate @ 30 minute (House Fly; 10 PPM, 0.001% by weight): 0%
Knockdown Rate @ 45 minutes (House Fly; 10 PPM, 0.001% by weight): 17%
Knockdown Rate @ 60 minutes (House Fly; 10 PPM, 0.001% by weight): 40%
Knockdown Rate @ 120 minutes (House Fly; 10 PPM, 0.001% by weight): 63%
Knockdown Rate @ 4 hours (House Fly; 10 PPM, 0.001% by weight): 50%
Mortality Rate @ 1 day (House Fly; 10 PPM, 0.001% by weight): 30%
Knockdown Rate @ 15 minute (House Fly; 50 PPM, 0.005% by weight): 0%
Knockdown Rate @ 30 minute (House Fly; 50 PPM, 0.005% by weight): 78%
Knockdown Rate @ 45 minutes (House Fly; 50 PPM, 0.005% by weight): 97%
Knockdown Rate @ 60 minutes (House Fly; 50 PPM, 0.005% by weight): 97%
Knockdown Rate @ 120 minutes (House Fly; 50 PPM, 0.005% by weight): 97%
Knockdown Rate @ 4 hours (House Fly; 50 PPM, 0.005% by weight): 97%
Mortality Rate @ 1 day (House Fly; 50 PPM, 0.005% by weight): 97%
Knockdown Rate @ 15 minute (House Flies; [1]): 0%
Knockdown Rate @ 30 minute (House Flies; [1]): 0%
Knockdown Rate @ 45 minutes (House Flies; [1]): 0%
Knockdown Rate @ 60 minutes (House Flies; [1]): 0%
Knockdown Rate @ 120 minutes (House Flies; [1]): 3%
Knockdown Rate @ 180 minutes (House Flies; [1]): 3%
Knockdown Rate @ 4 hours (House Flies; [1]): 3%
Mortality Rate @ 1 day (House Flies; [1]): 3%
Knockdown Rate @ 15 minute (House Flies; [2]): 3%
Knockdown Rate @ 30 minute (House Flies; [2]): 55%
Knockdown Rate @ 45 minutes (House Flies; [2]): 66%
Knockdown Rate @ 60 minutes (House Flies; [2]): 68%
Knockdown Rate @ 120 minutes (House Flies; [2]): 74%
Knockdown Rate @ 180 minutes (House Flies; [2]): 74%
Knockdown Rate @ 4 hours (House Flies; [2]): 76%
Mortality Rate @ 1 day (House Flies; [2]): 79%
